Reference: patent publication US10131652B2, “Pyrimidinyloxy benzene derivatives as herbicides” (E. I. DU PONT DE NEMOURS AND COMPANY, priority 2014, dated 2018)

How the values were obtained:
Type in all cases: in vivo
[1] = test system: barnyardgrass (Echinochloa crus-galli); test: Test B pre-/postemergence plant response
Summary of the method: (§1)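 Visual injury scores on a 0–100 scale (100 = complete control) relative to untreated plants, taken about 10 days post-treatment in greenhouse. Treatments were a directed preemergence soil spray and a postemergence spray at one- to two-leaf stage, using surfactant-containing solvent formulation.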

[2] = test system: pigweed (Amaranthus retroflexus); test: Test B pre-/postemergence plant response
Summary of the method: as §1

corn (Zea mays) = test: Test B pre-/postemergence plant response
Summary of the method: as §1

[3] = test system: ragweed (common ragweed, Ambrosia elatior); test: Test B pre-/postemergence plant response
Summary of the method: as §1

[4] = test system: Italian ryegrass (Lolium multiflorum); test: Test B pre-/postemergence plant response
Summary of the method: as §1

kochia (Kochia scoparia) = test: Test B pre-/postemergence plant response
Summary of the method: as §1

[5] = test system: wheat (Triticum aestivum); test: Test B pre-/postemergence plant response
Summary of the method: as §1

[6] = test system: giant foxtail (Setaria faberii); test: Test B pre-/postemergence plant response
Summary of the method: as §1

[7] = test system: galium (catchweed bedstraw, Galium aparine); test: Test B postemergence plant response
Summary of the method: (§2)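 Visual injury ratings, 0 = no effect to 100 = complete control, versus untreated controls approximately 10 days after postemergence spraying in greenhouse. Plants were at one- to two-leaf stage, 2 to 10 cm tall, in loam soil/sand blend; a dash denotes no result.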

[8] = test system: blackgrass (Alopecurus myosuroides); test: Test B postemergence plant response
Summary of the method: as §2

[9] = test system: barnyardgrass (Echinochloa crus-galli); test: Test C flooded paddy test plant response; conditions: Flood, 250 g ai/ha; scale of 0 to 100 where 0 is no effect and 100 is complete control; 13 to 15 days
Summary of the method: (§3)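 Readout is a visual 0–100 score (100 = complete control) versus controls at 13–15 days. Plants at 2-leaf stage, flooded to 3 cm, treated through paddy water.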

[10] = test system: small-flower umbrella sedge (Cyperus difformis); test: Test C flooded paddy test plant response; conditions: Flood, 250 g ai/ha; scale of 0 to 100 where 0 is no effect and 100 is complete control; 13 to 15 days
Summary of the method: as §3

rice (Oryza sativa) = test: Test C flooded paddy test plant response; conditions: Flood, 250 g ai/ha; scale of 0 to 100 where 0 is no effect and 100 is complete control; 13 to 15 days
Summary of the method: as §3

[11] = test system: ducksalad (Heteranthera limosa); test: Test C flooded paddy test plant response; conditions: Flood, 250 g ai/ha; scale of 0 to 100 where 0 is no effect and 100 is complete control; 13 to 15 days
Summary of the method: as §3

[12] = 31 g ai/ha, Preemergence, 0 to 100 scale where 0 is no effect and 100 is complete control
[13] = 125 g ai/ha, postemergence, 0 to 100 scale, 0 no effect, 100 complete control
[14] = Postemergence, 31 g ai/ha, 0 to 100 scale (0 no effect, 100 complete control)
[15] = Preemergence, 125 g ai/ha, 0 to 100 scale (0 no effect, 100 complete control)
[16] = Postemergence, 500 g ai/ha, 0 to 100 scale (0 no effect, 100 complete control)
[17] = Preemergence, 500 g ai/ha, 0 to 100 scale where 0 is no effect and 100 is complete control

| Structure (SMILES) | Plant response rating, Barnyardgrass [1, 13] | Barnyardgrass plant response rating [1, 15] | Plant response rating, Pigweed [2, 13] | Pigweed plant response rating [2, 15] | Plant response rating, Corn (corn (Zea mays); [13]) | Plant response rating, Ragweed [3, 13] | Ragweed plant response rating [3, 15] | Plant response rating, Ryegrass, Italian [4, 13] | Ryegrass, Italian plant response rating [4, 15] | Plant response rating, Kochia (kochia (Kochia scoparia); [13]) | Kochia plant response rating (kochia (Kochia scoparia); [15]) | Plant response rating, Wheat [5, 13] | Plant response rating, Foxtail, Giant [6, 13] | Foxtail, Giant plant response rating [6, 15] | Plant response rating, Galium [7, 13] | Plant response rating, Blackgrass [8, 13] | Barnyardgrass plant response rating [9] | Sedge, Umbrella plant response rating [10] | Rice plant response rating (rice (Oryza sativa)) | Ducksalad plant response rating [11] | other results |
| --- | --- | --- | --- | --- | --- | --- | --- | --- | --- | --- | --- | --- | --- | --- | --- | --- | --- | --- | --- | --- | --- |
| Brc1cnc(Oc2ccccc2-c2ccno2)nc1 [Compound 155] | 0 | 0 | 0 | 0 | 0 | 0 | 0 | 0 | 0 | 0 | 0 | 0 | 0 | 0 | 0 | 0 | 0 | 0 | 0 | 0 | Plant response rating, Barnyardgrass [1, 12]: 0; Plant response rating, Barnyardgrass [1, 14]: 0; Plant response rating, Pigweed [2, 12]: 0; Plant response rating, Pigweed [2, 14]: 0; Plant response rating, Corn (corn (Zea mays); [14]): 0; Plant response rating, Ragweed [3, 12]: 0; Plant response rating, Ragweed [3, 14]: 0; Plant response rating, Ryegrass, Italian [4, 12]: 0; Plant response rating, Ryegrass, Italian [4, 14]: 0; Plant response rating, Kochia (kochia (Kochia scoparia); [12]): 0; Plant response rating, Kochia (kochia (Kochia scoparia); [14]): 0; Plant response rating, Wheat [5, 14]: 0; Plant response rating, Foxtail, Giant [6, 12]: 0; Plant response rating, Foxtail, Giant [6, 14]: 0; Plant response rating, Galium [7, 14]: 0; Plant response rating, Blackgrass [8, 14]: 0 |
| Cc1csc(-c2c(C#N)cccc2Oc2ncc(Cl)cn2)c1 [Compound 238] | 30 | 40 | 20 | 10 | 20 | 0 | 0 | 0 | 0 | 80 | 0 | 0 | 10 | 20 | 40 | 0 | 20 | 65 | 15 | 45 | Plant response rating, Barnyardgrass [1, 12]: 0; Plant response rating, Barnyardgrass [1, 14]: 0; Plant response rating, Pigweed [2, 12]: 0; Plant response rating, Pigweed [2, 14]: 10; Plant response rating, Corn (corn (Zea mays); [14]): 0; Plant response rating, Ragweed [3, 12]: 0; Plant response rating, Ragweed [3, 14]: 0; Plant response rating, Ryegrass, Italian [4, 12]: 0; Plant response rating, Ryegrass, Italian [4, 14]: 0; Plant response rating, Kochia (kochia (Kochia scoparia); [12]): 0; Plant response rating, Kochia (kochia (Kochia scoparia); [14]): 20; Plant response rating, Wheat [5, 14]: 0; Plant response rating, Foxtail, Giant [6, 12]: 0; Plant response rating, Foxtail, Giant [6, 14]: 0; Plant response rating, Galium [7, 14]: 0; Plant response rating, Blackgrass [8, 14]: 0 |
| Fc1cccc(Oc2ncc(Cl)cn2)c1-c1cnccn1 [Compound 165] | 20 | 10 | 50 | 80 | 0 | 60 | 50 | 0 | 0 | 40 | 60 | 0 | 20 | 10 | 40 | 30 | 0 | 0 | 0 | 0 | Plant response rating, Barnyardgrass [1, 12]: 0; Plant response rating, Barnyardgrass [1, 14]: 0; Plant response rating, Pigweed [2, 12]: 30; Plant response rating, Pigweed [2, 14]: 30; Plant response rating, Corn (corn (Zea mays); [14]): 0; Plant response rating, Ragweed [3, 12]: 20; Plant response rating, Ragweed [3, 14]: 30; Plant response rating, Ryegrass, Italian [4, 12]: 0; Plant response rating, Ryegrass, Italian [4, 14]: 0; Plant response rating, Kochia (kochia (Kochia scoparia); [12]): 0; Plant response rating, Kochia (kochia (Kochia scoparia); [14]): 20; Plant response rating, Wheat [5, 14]: 0; Plant response rating, Foxtail, Giant [6, 12]: 0; Plant response rating, Foxtail, Giant [6, 14]: 10; Plant response rating, Galium [7, 14]: 20; Plant response rating, Blackgrass [8, 14]: 20 |
| Cc1ccnc(-c2ccccc2Oc2ncc(Cl)cn2)c1 [Compound 187] | 0 | 0 | 0 | 0 | 0 | 0 | 0 | 0 | 0 | 0 | 0 | 0 | 0 | 0 | 0 | 0 | 0 | 0 | 0 | 50 | Plant response rating, Barnyardgrass [1, 12]: 0; Plant response rating, Barnyardgrass [1, 14]: 0; Plant response rating, Pigweed [2, 12]: 0; Plant response rating, Pigweed [2, 14]: 0; Plant response rating, Corn (corn (Zea mays); [14]): 0; Plant response rating, Ragweed [3, 12]: 0; Plant response rating, Ragweed [3, 14]: 0; Plant response rating, Ryegrass, Italian [4, 12]: 0; Plant response rating, Ryegrass, Italian [4, 14]: 0; Plant response rating, Kochia (kochia (Kochia scoparia); [12]): 0; Plant response rating, Kochia (kochia (Kochia scoparia); [14]): 0; Plant response rating, Wheat [5, 14]: 0; Plant response rating, Foxtail, Giant [6, 12]: 0; Plant response rating, Foxtail, Giant [6, 14]: 0; Plant response rating, Galium [7, 14]: 0; Plant response rating, Blackgrass [8, 14]: 0 |
| Cn1ccnc1-c1ccccc1Oc1ncc(Cl)cn1 [Compound 151] | 0 | 0 | 0 | 0 | 0 | 0 | 0 | 0 | 0 | 0 | 0 | 0 | 0 | 0 | 0 | 0 | 0 | 0 | 0 | 0 | Plant response rating, Barnyardgrass [1, 16]: 0; Plant response rating, Barnyardgrass [1, 17]: 0; Plant response rating, Pigweed [2, 16]: 0; Plant response rating, Pigweed [2, 17]: 0; Plant response rating, Corn (corn (Zea mays); [16]): 0; Plant response rating, Ragweed [3, 16]: 0; Plant response rating, Ragweed [3, 17]: 0; Plant response rating, Ryegrass, Italian [4, 16]: 0; Plant response rating, Ryegrass, Italian [4, 17]: 0; Plant response rating, Kochia (kochia (Kochia scoparia); [16]): 0; Plant response rating, Kochia (kochia (Kochia scoparia); [17]): 0; Plant response rating, Wheat [5, 16]: 0; Plant response rating, Foxtail, Giant [6, 16]: 0; Plant response rating, Foxtail, Giant [6, 17]: 0; Plant response rating, Galium [7, 16]: 0; Plant response rating, Blackgrass [8, 16]: 0 |
